Measured values as given in PMC9465256, “Discovering monoacylglycerol lipase inhibitors by a combination of fluorogenic substrate assay and activity-based protein profiling” (Frontiers in Pharmacology, 2022).

Legend:
[1] = system: serine hydrolases labeled by FP-TAMRA in mouse brain membrane proteome; assay: Competitive ABPP selectivity assay, mouse brain membrane proteome; type: biochemical; settings: 100 µM, FP-TAMRA 250 nM
Experimental: Mouse brains were dounce homogenized lysis buffer (20 mM HEPES, 2 mM DTT, 1 mM MgCl2, 25 U/mL benzonase) and incubated on ice for 15 min, followed by low-speed spin (2,500 g, 3 min, 4 C) to remove debris. The supernatant was subjected to ultracentrifugation (100,000 g, 45 min, 4°C) to generate the cytosolic fraction in the supernatant, as well as the membrane fraction as a pellet. After removal of the soluble supernatant, the pellet was resuspended in storage buffer (20 mM HEPES, 2 mM DTT) by pipetting. Total protein concentrations in membrane and soluble fractions were determined using a Qubit protein assay (Invitrogen). The obtained samples were stored at −80°C until further use.
The competitive ABPP selectivity assay was performed according to the previously reported protocol. Briefly, mouse brain membrane proteome (2 mg/ml, 20 µl) was preincubated for 30 min with 0.5 µl of DMSO (vehicle) or inhibitor (100 μM, finial concentration). […] The reactions were then quenched by 10 µl sample buffer (×4). The obtained samples were directly loaded and resolved on SDS-PAGE gel (10% acrylamide). The gels were then scanned and analyzed using a ChemiDoc MP system (Cy3 settings, BioRad). All the samples were measured and duplicated.

[2] = system: endogenous MAGL in cancer cells; assay: Competitive ABPP in cancer cell lysates: MAGL band; type: biochemical; settings: 100 µM, FP-TAMRA 500 nM
Experimental: To identify the potential off-targets of the compounds with anti-cancer activities, ABPP was applied. Cancer cells were seeded in the dishes and were washed with PBS, scraped, centrifugated (3,000 × g, 3 min) and pellets snap frozen in liquid in nitrogen. For ABPP experiments, the cell pellets were lysed by probe sonication (3 × 10 bursts) in PBS, followed by the determination of protein concentration of the intact cell lysate by Qubit assay. […] The reactions were then quenched by 10 µl sample buffer (×4). The obtained samples were directly loaded and resolved on SDS-PAGE gel (10% acrylamide). The gel-based ABPP results were then scanned and analyzed using a ChemiDoc MP system (Cy3 settings, BioRad).

C[C@H]1COC2=C1C(=O)C(=O)c1c2ccc2c1CCCC2(C)C [compound 23, Cryptotanshinone]
selectivity profile over serine hydrolases [1]: broad-spectrum inhibitors that cross-reacted with multiple serine hydrolases | labeling of endogenous MAGL, A549 ([2]; 30 min, A549 cell lysate): completely reduced the labeling | labeling of endogenous MAGL, B16-F10 ([2]; 30 min, B16-F10 cell lysate): completely reduced the labeling | labeling of endogenous MAGL, H1975 ([2]; 30 min, H1975 cell lysate): completely reduced the labeling | labeling of endogenous MAGL, HCC827 ([2]; 30 min, HCC827 cell lysate): completely reduced the labeling | labeling of endogenous MAGL, HT-29 ([2]; 30 min, HT-29 cell lysate): completely reduced the labeling | labeling of endogenous MAGL, Hela ([2]; 30 min, Hela cell lysate): completely reduced the labeling | labeling of endogenous MAGL, OVCAR-3 ([2]; 30 min, OVCAR-3 cell lysate): completely reduced the labeling | inhibition of endogenous MAGL in the tested cancer cell lines ([2]; cancer cell lysates): nearly complete inhibition
